Data taken from patent publication US20230233569A1 (Revolution Medicines, Inc., priority 2020, published 2023).
Like-named read-outs stand apart in the source and are kept apart here.

What was measured:
NCI-H358 (K-Ras G12C) = assay: CellTiter-Glo cell viability assay, 5-day treatment; format: cell-based; conditions: Homo sapiens, NCI-H358, 120 h, 5-day treatment; read-out: H358 Cell Viability assay data (K-Ras G12C, IC50)
Protocol: Protocol: CellTiter-Glo® Cell Viability Assay
Note—The following protocol describes a procedure for monitoring cell viability of K-Ras mutant cancer cell lines in response to a compound of the invention. Other RAS isoforms may be employed, though the number of cells to be seeded will vary based on cell line used.
(§1) Test compounds (132.5 nL) were directly dispensed into the assay plates containing cells. […] On day 5, assay plates and their contents were equilibrated to room temperature for approximately 30 minutes. […] Luminescence was measured using the PerkinElmer Enspire. Data were normalized by the following: (Sample signal/Avg. DMSO)*100. The data were fit using a four-parameter logistic fit.
as §1, with “nl)” for “nL)”

KRAS G12D = KRAS G12D (Homo sapiens, UniProt P01116+P62937, G12D); assay: Disruption of BRAF RBD interaction with Ras (FRET / MOA assay, with Cyclophilin A); format: biochemical
Source text: (§2) This protocol may also be executed substituting other Ras proteins or nucleotides.
(§3) The purpose of this biochemical assay was to measure the ability of test compounds to facilitate ternary complex formation between a nucleotide-loaded K-Ras isoform and Cyclophilin A; the resulting ternary complex disrupts binding to a BRAF^RBD construct, inhibiting K-Ras signaling through a RAF effector. Data is reported as IC50 values.
(§4) Compound was present in plate wells as a 10-point 3-fold dilution series starting at a final concentration of 30 μM. After incubation at 25° C. for 3 hours, a mixture of Anti-His Eu-W1024 and anti-GST allophycocyanin was then added to assay sample wells at final concentrations of 10 nM and 50 nM, respectively, and the reaction incubated for an additional 1.5 hours. […] Compounds that facilitate disruption of a K-Ras:RAF complex were identified as those eliciting a decrease in the TR-FRET ratio relative to DMSO control wells.
as §3, with “BRAF^RBDD” for “BRAF^RBD”

NRAS G12C = NRAS G12C (Homo sapiens, UniProt P01111+P62937, G12C); assay: as above; format: biochemical
Source text: as §2, §3, §4
as §3, with “BRAF^RBDD” for “BRAF^RBD”

KRAS G13C = KRAS G13C (Homo sapiens, UniProt P01116+P62937, G13C); assay: as above; format: biochemical
Source text: as §2, §3, §4
as §3, with “BRAF^RBDD” for “BRAF^RBD”

KRAS G12S = KRAS G12S (Homo sapiens, UniProt P01116+P62937, G12S); assay: as above; format: biochemical
Source text: as §2, §3, §4
as §3, with “BRAF^RBDD” for “BRAF^RBD”

KRAS G13D = KRAS G13D (Homo sapiens, UniProt P01116+P62937, G13D); assay: as above; format: biochemical
Source text: as §2, §3, §4
as §3, with “BRAF^RBDD” for “BRAF^RBD”

KRAS G12V = KRAS G12V (Homo sapiens, UniProt P01116+P62937, G12V); assay: as above; format: biochemical
Source text: as §2, §3, §4
as §3, with “BRAF^RBDD” for “BRAF^RBD”

KRAS G12C = KRAS G12C (Homo sapiens, UniProt P01116+P62937, G12C); assay: as above; format: biochemical
Source text: as §2, §3, §4
as §3, with “BRAF^RBDD” for “BRAF^RBD”

KRAS WT = KRAS WT (Homo sapiens, UniProt P01116+P62937); assay: as above; format: biochemical
Source text: as §2, §3, §4
as §3, with “BRAF^RBDD” for “BRAF^RBD”

[1] = NRAS G12C FRET data IC50, NRAS G12C
[2] = KRAS G13D FRET data IC50, KRAS G13D
[3] = KRAS G12V FRET data IC50, KRAS G12V
[4] = KRAS WT FRET data IC50, KRAS WT
[5] = read-out: KRAS G12D FRET data, IC50
[6] = NRAS G12C, read-out: NRAS G12C FRET data IC50
[7] = read-out: KRAS G13C FRET data, IC50
[8] = read-out: KRAS G12S FRET data, IC50
[9] = KRAS G13D, read-out: KRAS G13D FRET data IC50
[10] = KRAS G12V, read-out: KRAS G12V FRET data IC50
[11] = read-out: KRAS G12C FRET data, IC50
[12] = KRAS WT, read-out: KRAS WT FRET data IC50

Chain of KRAS WT (P01116 1-169 isoform P01116-2 limits assumed): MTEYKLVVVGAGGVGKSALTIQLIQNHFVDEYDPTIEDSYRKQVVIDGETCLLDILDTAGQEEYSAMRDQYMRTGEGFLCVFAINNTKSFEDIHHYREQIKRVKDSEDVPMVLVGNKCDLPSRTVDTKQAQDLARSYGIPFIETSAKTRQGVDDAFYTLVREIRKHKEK
Chain of KRAS WT (P62937 whole entry): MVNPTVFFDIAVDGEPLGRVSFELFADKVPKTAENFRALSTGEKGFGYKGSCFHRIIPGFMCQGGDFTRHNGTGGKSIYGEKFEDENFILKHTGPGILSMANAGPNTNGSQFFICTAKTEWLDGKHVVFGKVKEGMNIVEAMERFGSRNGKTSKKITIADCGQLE
Chain of KRAS G12S (P01116 1-169 isoform P01116-2 G12S limits assumed): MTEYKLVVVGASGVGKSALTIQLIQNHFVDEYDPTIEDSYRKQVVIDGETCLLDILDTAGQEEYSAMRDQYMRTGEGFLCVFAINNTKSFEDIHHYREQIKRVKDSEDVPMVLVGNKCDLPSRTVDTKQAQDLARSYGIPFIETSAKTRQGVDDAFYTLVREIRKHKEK
Chain of KRAS G12S (P62937 whole entry): as the sequence (P62937 whole entry) above
Chain of KRAS G12C (P01116 1-169 isoform P01116-2 G12C): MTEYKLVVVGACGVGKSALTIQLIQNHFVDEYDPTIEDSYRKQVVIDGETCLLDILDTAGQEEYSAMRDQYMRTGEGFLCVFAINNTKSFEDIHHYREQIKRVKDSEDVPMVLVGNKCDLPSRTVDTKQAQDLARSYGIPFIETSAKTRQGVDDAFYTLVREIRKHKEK
Chain of KRAS G12C (P62937 whole entry): as the sequence (P62937 whole entry) above
Chain of KRAS G12V (P01116 1-169 isoform P01116-2 G12V limits assumed): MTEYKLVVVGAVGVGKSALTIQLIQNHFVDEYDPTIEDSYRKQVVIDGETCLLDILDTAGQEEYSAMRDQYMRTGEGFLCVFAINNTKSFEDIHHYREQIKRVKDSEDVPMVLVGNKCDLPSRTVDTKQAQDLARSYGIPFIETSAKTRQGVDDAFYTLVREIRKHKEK
Chain of KRAS G12V (P62937 whole entry): as the sequence (P62937 whole entry) above
Chain of KRAS G13D (P01116 1-169 isoform P01116-2 G13D limits assumed): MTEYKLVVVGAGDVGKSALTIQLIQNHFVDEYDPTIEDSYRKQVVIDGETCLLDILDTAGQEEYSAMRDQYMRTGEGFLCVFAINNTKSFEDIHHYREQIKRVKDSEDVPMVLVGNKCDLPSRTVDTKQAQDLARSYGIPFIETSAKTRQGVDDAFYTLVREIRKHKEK
Chain of KRAS G13D (P62937 whole entry): as the sequence (P62937 whole entry) above
Chain of KRAS G13C (P01116 1-169 isoform P01116-2 G13C): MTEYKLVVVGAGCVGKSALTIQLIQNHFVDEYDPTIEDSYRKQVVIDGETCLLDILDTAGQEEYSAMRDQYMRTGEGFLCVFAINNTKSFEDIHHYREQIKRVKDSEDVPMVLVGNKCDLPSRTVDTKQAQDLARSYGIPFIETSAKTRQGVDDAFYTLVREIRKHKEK
Chain of KRAS G13C (P62937 whole entry): as the sequence (P62937 whole entry) above
Chain of KRAS G12D (P01116 1-169 isoform P01116-2 G12D limits assumed): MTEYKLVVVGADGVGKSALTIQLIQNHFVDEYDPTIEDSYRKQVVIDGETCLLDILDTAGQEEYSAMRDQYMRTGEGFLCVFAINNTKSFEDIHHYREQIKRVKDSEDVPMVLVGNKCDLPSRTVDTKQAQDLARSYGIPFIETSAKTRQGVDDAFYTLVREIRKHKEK
Chain of KRAS G12D (P62937 whole entry): as the sequence (P62937 whole entry) above
Chain of NRAS G12C (P01111 whole entry G12C): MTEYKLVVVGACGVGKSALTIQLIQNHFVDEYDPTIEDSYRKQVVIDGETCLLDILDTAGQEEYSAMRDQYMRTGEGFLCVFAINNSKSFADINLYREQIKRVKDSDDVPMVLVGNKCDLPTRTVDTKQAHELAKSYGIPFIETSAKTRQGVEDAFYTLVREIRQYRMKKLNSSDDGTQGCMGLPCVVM
Chain of NRAS G12C (P62937 whole entry): as the sequence (P62937 whole entry) above

CCn1c(-c2cnccc2COC)c2c3cc(ccc31)-c1cc(O)cc(c1)C[C@H](NC(=O)[C@H](C(C)C)N(C)C(=O)[C@H]1CCN(C)C1)C(=O)N1CCC[C@H](N1)C(=O)OCC(C)(C)C2 [Example A27, (2S)—N-[(8S,14S)-22-ethyl-4-hydroxy-21-[4-(methoxymethyl)pyridin-3-yl]-18,18-dimethyl-9,15-dioxo-16-oxa-10,22,28-triazapentacyclo[18.5.2.1^2,6.1^10,14.0^23,27]nonacosa-1(26),2,4,6(29),20,23(27),24-heptaen-8-yl]-3-methyl-2-{N-methyl-1-[(3S)-1-methylpyrrolidin-3-yl]formamido}butanamide]
IC50 (NCI-H358 (K-Ras G12C)): 1000 to 10000 nM | IC50 (KRAS G12D; KRAS G12D FRET data, IC50): 100 to 1000 nM | IC50 (NRAS G12C; [1]): 100 to 1000 nM | IC50 (KRAS G13C; KRAS G13C FRET data, IC50): 10 to 100 nM | IC50 (KRAS G12S; KRAS G12S FRET data, IC50): 100 to 1000 nM | IC50 (KRAS G13D; [2]): 10 to 100 nM | IC50 (KRAS G12V; [3]): 1000 to 10000 nM | IC50 (KRAS G12C; KRAS G12C FRET data, IC50): 100 to 1000 nM | IC50 (KRAS WT; [4]): 100 to 1000 nM

CCn1c(-c2cccnc2COC)c2c3cc(ccc31)-c1cc(O)cc(c1)C[C@H](NC(=O)[C@H](C(C)C)N(C)C(=O)[C@H]1CCNC1)C(=O)N1CCC[C@H](N1)C(=O)OCC(C)(C)C2 [Example A32]
IC50 (NCI-H358 (K-Ras G12C)): > 10000 nM | IC50 (KRAS G12D; [5]): 100 to 1000 nM | IC50 (NRAS G12C; [6]): 100 to 1000 nM | IC50 (KRAS G13C; [7]): 100 to 1000 nM | IC50 (KRAS G12S; [8]): 100 to 1000 nM | IC50 (KRAS G13D; [9]): 100 to 1000 nM | IC50 (KRAS G12V; [10]): 1000 to 10000 nM | IC50 (KRAS G12C; [11]): 100 to 1000 nM | IC50 (KRAS WT; [12]): 100 to 1000 nM

CCn1c(-c2cnccc2COC)c2c3cc(ccc31)-c1cc(O)cc(c1)C[C@H](NC(=O)[C@H](C(C)C)N(C)C(=O)[C@H]1CCN(S(=O)(=O)N3CC(N)C3)C1)C(=O)N1CCC[C@H](N1)C(=O)OCC(C)(C)C2 [Example A35]
IC50 (NCI-H358 (K-Ras G12C)): 100 to 1000 nM | IC50 (KRAS G12D; [5]): 1000 to 10000 nM | IC50 (NRAS G12C; [6]): 100 to 1000 nM | IC50 (KRAS G13C; [7]): 100 to 1000 nM | IC50 (KRAS G12S; [8]): 100 to 1000 nM | IC50 (KRAS G13D; [9]): 100 to 1000 nM | IC50 (KRAS G12V; [10]): 100 to 1000 nM | IC50 (KRAS G12C; [11]): 100 to 1000 nM | IC50 (KRAS WT; [12]): 100 to 1000 nM

CCn1c(-c2cnccc2COC)c2c3cc(ccc31)-c1cc(O)cc(c1)C[C@H](NC(=O)[C@H](C(C)C)N(C)C(=O)[C@H]1CCN(C(=O)N(C)C)C1)C(=O)N1CCC[C@H](N1)C(=O)OCC(C)(C)C2 [Example A42, (3S)-N3-[(1S)-1-{[(8S,14S)-22-ethyl-4-hydroxy-21-[4-(methoxymethyl)pyridin-3-yl]-18,18-dimethyl-9,15-dioxo-16-oxa-10,22,28-triazapentacyclo[18.5.2.1^2,6.1^10,14.0^23,27]nonacosa-1(26),2,4,6(29),20,23(27),24-heptaen-8-yl]carbamoyl}-2-methylpropyl]-N1,N1,N3-trimethylpyrrolidine-1,3-dicarboxamide]
IC50 (NCI-H358 (K-Ras G12C)): 1000 to 10000 nM | IC50 (KRAS G12D; KRAS G12D FRET data, IC50): > 10000 nM | IC50 (NRAS G12C; [1]): 1000 to 10000 nM | IC50 (KRAS G13C; KRAS G13C FRET data, IC50): 1000 to 10000 nM | IC50 (KRAS G12S; KRAS G12S FRET data, IC50): 1000 to 10000 nM | IC50 (KRAS G13D; [2]): 1000 to 10000 nM | IC50 (KRAS G12V; [3]): 1000 to 10000 nM | IC50 (KRAS G12C; KRAS G12C FRET data, IC50): 100 to 1000 nM | IC50 (KRAS WT; [4]): 1000 to 10000 nM

CCn1c(-c2cnccc2COC)c2c3cc(ccc31)-c1cc(O)cc(c1)C[C@H](NC(=O)[C@H](C(C)C)N1CCCCC1=O)C(=O)N1CCC[C@H](N1)C(=O)OCC(C)(C)C2 [Example A44]
IC50 (NCI-H358 (K-Ras G12C)): 1000 to 10000 nM | IC50 (KRAS G12D; [5]): 1000 to 10000 nM | IC50 (NRAS G12C; [6]): 100 to 1000 nM | IC50 (KRAS G13C; [7]): 1000 to 10000 nM | IC50 (KRAS G12S; [8]): 1000 to 10000 nM | IC50 (KRAS G13D; [9]): 1000 to 10000 nM | IC50 (KRAS G12V; [10]): 100 to 1000 nM | IC50 (KRAS G12C; [11]): 100 to 1000 nM | IC50 (KRAS WT; [12]): 100 to 1000 nM

CCn1c(-c2cccnc2[C@H](C)OC)c2c3cc(ccc31)-c1cc(O)cc(c1)C[C@H](NC(=O)[C@H](C(C)C)N(C)C(=O)[C@@H]1CNC[C@@H]1C)C(=O)N1CCC[C@H](N1)C(=O)OCC(C)(C)C2 [Example A128]
IC50 (NCI-H358 (K-Ras G12C)): 1000 to 10000 nM | IC50 (KRAS G12D; [5]): 10 to 100 nM | IC50 (NRAS G12C; [6]): 10 to 100 nM | IC50 (KRAS G13C; [7]): 10 to 100 nM | IC50 (KRAS G12S; [8]): 10 to 100 nM | IC50 (KRAS G13D; [9]): 10 to 100 nM | IC50 (KRAS G12V; [10]): 100 to 1000 nM | IC50 (KRAS WT; [12]): 10 to 100 nM
